Like-named read-outs stand apart in the source and are kept apart here. Each block holds one compound with its values, some of them ahead of it.
Legend:
[1] = Human Liver Microsomal Stability Test; assay type: in vitro ADME; conditions: human liver microsomes
Procedure: The metabolic degradation for a specific SYK-inhibitor is performed at 37° C. with pooled human liver microsomes (human liver microsomes are commercially available as “BD UltraPool™” by Corning Life Sciences, Fogostraat 12, 1060 LJ Amsterdam, The Netherlands). The final incubation volume of 100 μl per time point contains TRIS buffer pH 7.6 at RT (0.1 M), magnesium chloride (5 mM), microsomal protein (1 mg/ml) and the test compound at a final concentration of 1 μM.
Following a short preincubation period at 37° C., the reaction is initiated by addition of beta-nicotinamide adenine dinucleotide phosphate in its reduced form (NADPH, 1 mM) and terminated by transfering an aliquot into solvent after different time points. Additionally, the NADPH-independent degradation is monitored in incubations without NADPH, terminated at the last time point.
The quenched (terminated) incubations are then pelleted by centrifugation (10000 g, 5 min).
An aliquot of the supernatant is assayed by LC-MS/MS for the remaining amount of parent compound. The half-life (t½ INVITRO) is determined by the slope of the semilogarithmic plot of the concentration-time profile.
The intrinsic clearance (CL_[…]) is calculated by considering the amount of protein in the incubation: CL_[…] [μl/min/mg protein]=(Ln 2/(t½INVITRO [min]*protein content [mg/ml]))*1000
The protein content [mg/ml] was determined with the “Bicinchoninic Acid Kit” of Sigma Aldrich (commercially available).
The upscaled intrinsic Clearance (CL_UP_INT) is calcuated by considering the liver weight [g liver/kg body weight] and the microsomal recovery [mg protein/g liver]: CL_UP_INT [ml/min/kg]=0.001*CL_[…]*liver weight*microsomal recovery • with microsomal recovery=45 mg protein/g liver • with liver weight=25.7 g liver/kg body weight
The percent hepatic blood flow (% Qh) is finally calculated by considering the human liver blood flow Q [ml/min/kg]: % Qh [%]=((Q*CL_UP_INT)/(Q+CL_UP_INT)/Q)*100 • with liver blood flow (Q)=20.7 ml/min/kg.

[2] = biological target: Recombinant human Aurora B (amino acids 1-344) (Homo sapiens (Human), UniProt Q96GD4); test: Aurora B Kinase Test (ADP Glo luminescence); assay type: biochemical
Procedure: The activity of the Aurora B kinase protein was determined using the ADP Glo® Luminescence Kinase test (Promega; V9103X).
Serial Dilution is done in 1:10 steps in 100% DMSO.
Then 20 μl Kinase detection mix (Detection Buffer #V913B Promega; Kinase Detection Substrate #V914B Promega) were added and incubated for 40 minutes at room temperature.
The output file of the reader is a csv file that contains the well number and measured RLU. For data evaluation and calculation, the measurement of the negative control was set as 0% ctrl and the measurement of the positive control was set as 100% ctrl. Based on this values the % value for the measurement of each substance concentration was calculated using an Assay Explorer software (Accelrys). Normally, the % ctrl values calculated are between 0% and 100% values but may also occur outside these limits in individual cases based on variability or compound characteristics. The IC50 values were calculated from the % ctrl values using Assay Explorer software. Calculation: [y=(a−d)/(1+(x/c)^b)+d], a=low value, d=high value; x=conc M; c=IC50 M; b=hill; y=% ctrl.

FLT3 = FLT3 (Homo sapiens (Human), UniProt P36888); test: FLT3 Kinase Test (Z'-LYTE); assay type: biochemical
Procedure: The activity of FLT3 is measured using the Z′-LYTE™ assay technology from Invitrogen (#PV3191)
The reaction is started by addition of 2.5 μl of the 4×ATP solution.
Positive controls are reaction mixtures containing no test compound; negative controls (blanks) are reaction mixtures containing no kinase. As a further control, the phosphopeptide solution is added to wells without kinase (=100% phosphorylation control).
The reaction is performed for 1 h at room temperature before 5 μl of the development solution is added. After a further incubation for 1 h at room temperature 5 μl of the stop reagent is added.
The output text file is evaluated in an “MS-Excel-VB-Makro” and “GraphPadPrism” (Version 5) (GraphPad Software Inc.) is used to calculate the results. Data for the inhibition of FLT3 are reported in M. data for the inhibition of the protease are reported in % CTL.

[3] = comparison compounds, Example numbers of WO 2013/014060
[4] = comparison compounds, Example numbers of WO 2011/092128
[5] = compounds of the invention (own Example numbers)
[6] = read-out: AURB-inhibition IC50-value

Recombinant human Aurora B (amino acids 1-344), sequence (Q96GD4 whole entry, the tested form may be a part): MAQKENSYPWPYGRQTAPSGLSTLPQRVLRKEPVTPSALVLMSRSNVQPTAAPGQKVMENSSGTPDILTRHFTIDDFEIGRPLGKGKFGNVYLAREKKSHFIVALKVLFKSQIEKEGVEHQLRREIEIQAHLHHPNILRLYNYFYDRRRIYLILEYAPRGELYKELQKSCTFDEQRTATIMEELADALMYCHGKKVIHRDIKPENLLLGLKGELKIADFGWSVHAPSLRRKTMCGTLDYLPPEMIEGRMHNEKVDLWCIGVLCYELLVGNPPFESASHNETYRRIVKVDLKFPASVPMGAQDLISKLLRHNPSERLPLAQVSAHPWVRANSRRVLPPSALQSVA
FLT3, sequence (P36888 564-958): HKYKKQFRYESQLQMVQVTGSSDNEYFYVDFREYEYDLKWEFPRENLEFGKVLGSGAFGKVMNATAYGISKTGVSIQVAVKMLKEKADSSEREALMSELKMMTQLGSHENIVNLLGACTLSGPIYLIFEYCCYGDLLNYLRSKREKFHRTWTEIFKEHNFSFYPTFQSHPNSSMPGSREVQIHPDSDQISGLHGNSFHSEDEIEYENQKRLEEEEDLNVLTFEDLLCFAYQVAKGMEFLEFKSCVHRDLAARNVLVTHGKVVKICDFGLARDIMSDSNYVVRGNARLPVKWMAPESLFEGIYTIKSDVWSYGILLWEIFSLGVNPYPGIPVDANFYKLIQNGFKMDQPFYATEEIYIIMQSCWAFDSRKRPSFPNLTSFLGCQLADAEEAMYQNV

- microsomal stability Cl [% Qh] ([1]; percent hepatic blood flow): 24 % Qh
Compound: C[C@@H](Oc1cc(-c2ccccn2)cc2ncccc12)[C@H]1CNC(=O)C1 [6 of WO 2013/014060]

- microsomal stability Cl [% Qh] ([1]; percent hepatic blood flow): <23 % Qh
Compound: C[C@@H](Oc1cc(-c2ccc(CN3CCOCC3)cc2)cc2ncccc12)[C@H]1CNC(=O)C1 [43 of WO 2013/014060]

- microsomal stability Cl [% Qh] ([1]; percent hepatic blood flow): 53 % Qh
Compound: C[C@@H](Oc1nc(-c2ccc(N3CCOCC3)nc2)cc2ncccc12)[C@H]1CNC(=O)C1 [45 of WO 2011/092128]

- microsomal stability Cl [% Qh] ([1]; percent hepatic blood flow): <23 % Qh
Compound: C[C@@H](Oc1cc(-c2ccc(C(=O)N3CCN(C)CC3)cc2)cc2ncccc12)[C@H]1CNC(=O)C1 [76 of WO 2013/014060]

- microsomal stability Cl [% Qh] ([1]; percent hepatic blood flow): <23 % Qh
Compound: C[C@@H](Oc1cc(-c2ccc3c(c2)CNCC3)cc2ncccc12)[C@H]1CNC(=O)C1 [101 of WO 2013/014060]

- microsomal stability Cl [% Qh] [1, 3]: 81 % Qh
Compound: COc1cc(-c2cc(O[C@H](C)[C@H]3CNC(=O)C3)c3cccnc3c2)cc(OC)c1OC [Example 2 of WO 2013/014060, reference compound]

- microsomal stability Cl [% Qh] [1, 4]: 77 % Qh
Compound: COc1cc(-c2cc3ncccc3c(O[C@H](C)[C@H]3CNC(=O)C3)n2)cc(OC)c1Cl [Example 8 of WO 2011/092128, reference compound]

- IC50 ([2]; comparison compounds, Example numbers of WO 2013/014060, read-out: IC50 in μM (AURB-Inhibition)): 0.643 µM
- IC50 (FLT3; comparison compounds, Example numbers of WO 2013/014060, read-out: IC50 in μM (FLT3-Inhibition)): 0.369 µM
- microsomal stability Cl [% Qh] [1, 4]: 77 % Qh
- microsomal stability Cl [% Qh] [1, 3]: 58 % Qh
- microsomal stability Cl [% Qh] [1, 5]: <23 % Qh
Compound: COc1cc(-c2cc3nn(C)cc3c(O[C@H](C)[C@H]3CNC(=O)C3)n2)ccc1O [Example 8, (4R)-4-[(1R)-1-[6-(4-Hydroxy-3-methoxy-phenyl)-2-methyl-pyrazolo[4,3-c]pyridin-4-yl]oxyethyl]pyrrolidin-2-one]

- IC50 [2, 6]: > 50 µM
Compound: C[C@@H](Oc1cc(-c2ccn(C)n2)cc2nn(C)cc12)[C@H]1CNC(=O)C1 [Example 14, (4R)-4-[(1R)-1-[2-methyl-6-(1-methylpyrazol-3-yl)indazol-4-yl]oxyethyl]-pyrrolidin-2-one]

- microsomal stability Cl [% Qh] [1, 5]: <23 % Qh
Compound: C[C@@H](Oc1cc(-c2cnn(C(C)(C)C)c2)cc2nn(C)cc12)[C@H]1CNC(=O)C1 [Example 18, (4R)-4-[(1R)-1-[6-(1-tert-butylpyrazol-4-yl)-2-methyl-indazol-4-yl]oxyethyl]pyrrolidin-2-one]

- microsomal stability Cl [% Qh] ([1]; percent hepatic blood flow): 25 % Qh
Compound: C[C@@H](Oc1cc(-c2ccc(N3CCOCC3)cc2)cc2nn(C)cc12)[C@H]1CNC(=O)C1 [Example 22, (4R)-4-[(1R)-1-[2-Methyl-6-(4-morpholinophenyl)indazol-4-yl]oxyethyl]-pyrrolidin-2-one]

- microsomal stability Cl [% Qh] ([1]; percent hepatic blood flow): <23 % Qh
Compound: C[C@@H](Oc1cc(-c2ccc(N3CCN(C)CC3)cc2)cc2nn(C)cc12)[C@H]1CNC(=O)C1 [Example 26, (4R)-4-[(1R)-1-[2-methyl-6-[4-(4-methylpiperazin-1-yl)phenyl]indazol-4-yl]oxyethyl]pyrrolidin-2-one]

- microsomal stability Cl [% Qh] ([1]; percent hepatic blood flow): <23 % Qh
Compound: CC(C)Oc1ccc(-c2cc(O[C@H](C)[C@H]3CNC(=O)C3)c3cn(C)nc3c2)cn1 [Example 27, (4R)-4-[(1R)-1-[6-(6-isopropoxy-3-pyridyl)-2-methyl-indazol-4-yl]oxyethyl]pyrrolidin-2-one]

- microsomal stability Cl [% Qh] [1, 5]: <23 % Qh
Compound: C[C@@H](Oc1cc(-c2ccc3c(cnn3C)c2)cc2nn(C)cc12)[C@H]1CNC(=O)C1 [Example 28, (4R)-4-[(1R)-1-[2-methyl-6-(1-methylindazol-5-yl)indazol-4-yl]oxyethyl]pyrrolidin-2-one]

- microsomal stability Cl [% Qh] [1, 5]: <23 % Qh
Compound: C[C@@H](Oc1cc(-c2ccc3c(c2)c(N)nn3C)cc2nn(C)cc12)[C@H]1CNC(=O)C1 [Example 36, (4R)-4-[(1R)-1-[6-(3-amino-1-methyl-indazol-5-yl)-2-methyl-indazol-4-yl]oxyethyl]pyrrolidin-2-one]

- microsomal stability Cl [% Qh] ([1]; percent hepatic blood flow): <23 % Qh
Compound: C[C@@H](Oc1nc(-c2ccc(C(F)F)nc2)cc2nn(C)cc12)[C@H]1CNC(=O)C1 [Example 51, (4R)-4-[(1R)-1-[6-[6-(difluoromethyl)-3-pyridyl]-2-methyl-pyrazolo[4,3-c]pyridin-4-yl]oxyethyl]pyrrolidin-2-one]

- microsomal stability Cl [% Qh] [1, 5]: <23 % Qh
Compound: COc1cc(-c2cc3nn(C)cc3c(O[C@H](C)[C@H]3CNC(=O)C3)n2)cc(OC)c1OC [Example 52, (4R)-4-[(1R)-1-[2-methyl-6-(3,4,5-trimethoxyphenyl)-pyrazolo[4,3-c]pyridin-4-yl]oxyethyl]pyrrolidin-2-one]

- IC50 [2, 6]: > 50 µM
Compound: C[C@@H](Oc1nc(-c2ccc3cc(C(=O)N(C)C)n(C)c3c2)cc2nn(C)cc12)[C@H]1CNC(=O)C1 [Example 56, N,N,1-trimethyl-6-[2-methyl-4-[(1R)-1-[(3R)-5-oxopyrrol-idin-3-yl]ethoxy]pyrazolo[4,3-c]pyridin-6-yl]indole-2-carboxamide]

- microsomal stability Cl [% Qh] ([1]; percent hepatic blood flow): <23 % Qh
Compound: COc1ccc(-c2cc3nn(C)cc3c(O[C@H](C)[C@H]3CNC(=O)C3)n2)cn1 [Example 59, (4R)-4-[(1R)-1-[6-(6-methoxy-3-pyridyl)-2-methyl-pyrazolo-[4,3-c]pyridin-4-yl]oxyethyl]-pyrrolidin-2-one]

- microsomal stability Cl [% Qh] [1, 5]: <23 % Qh
Compound: C[C@@H](Oc1nc(-c2ccc3c(cnn3C)c2)cc2nn(C)cc12)[C@H]1CNC(=O)C1 [Example 62, (4R)-4-[(1R)-1-[2-methyl-6-(1-methylindazol-5-yl)pyrazolo[4,3-c]pyridin-4-yl]oxyethyl]pyrrolidin-2-one]

- microsomal stability Cl [% Qh] ([1]; percent hepatic blood flow): 34 % Qh
Compound: C[C@@H](Oc1nc(-c2ccc(N3CCN(C)CC3)cc2)cc2nn(C)cc12)[C@H]1CNC(=O)C1 [Example 67, (4R)-4-[(1R)-1-[2-methyl-6-[4-(4-methylpiperazin-1-yl)phenyl]pyrazolo[4,3-c]pyridin-4-yl]oxyethyl]-pyrrolidin-2-one]

- microsomal stability Cl [% Qh] [1, 5]: <23 % Qh
Compound: C[C@@H](Oc1nc(-c2ccc3cnn(C)c3c2)cc2nn(C)cc12)[C@H]1CNC(=O)C1 [Example 72, (4R)-4-[(1R)-1-[2-methyl-6-(1-methylindazol-6-yl)pyrazolo[4,3-c]pyridin-4-yl]oxyethyl]pyrrolidin-2-one]

- microsomal stability Cl [% Qh] [1, 4]: 33 % Qh
Compound: COc1cc(-c2cc3ncccc3c(O[C@H](C)[C@H]3CNC(=O)C3)n2)ccc1OC(F)(F)F [compound 4]

- microsomal stability Cl [% Qh] [1, 3]: 49 % Qh
Compound: Cc1nc2ccc(-c3cc(O[C@H](C)[C@H]4CNC(=O)C4)c4cccnc4c3)cc2s1 [compound 85]

- microsomal stability Cl [% Qh] [1, 3]: 54 % Qh
Compound: COc1cc(-c2cc(O[C@H](C)[C@H]3CNC(=O)C3)c3cccnc3c2)ccc1C(F)(F)F [compound 102]

- microsomal stability Cl [% Qh] [1, 3]: 64 % Qh
Compound: Cc1nc2cc(-c3cc(O[C@H](C)[C@H]4CNC(=O)C4)c4cccnc4c3)ccc2n1C [compound 105]

- microsomal stability Cl [% Qh] [1, 3]: 38 % Qh
Compound: Cc1nc(C)c2cc(-c3cc(O[C@H](C)[C@H]4CNC(=O)C4)c4cccnc4c3)ccc2n1 [compound 107]

- microsomal stability Cl [% Qh] [1, 3]: 41 % Qh
Compound: Cc1nc2cc(-c3cc(O[C@H](C)[C@H]4CNC(=O)C4)c4cccnc4c3)ccc2[nH]1 [compound 109]

- IC50 (FLT3; read-out: FLT3-inhibition IC50-value): 25.6 µM
Compound: (4R)-4-[(1R)-1-[6-[1-(Difluoromethyl)imidazol-4-yl]-2-methyl-pyrazolo[4,3-c]pyridin-4-yl]oxyethyl]pyrrolidin-2-one [Example 83]

Source: US10947243B2, “Heteroaryl SYK inhibitors” (Boehringer Ingelheim International GmbH, priority 2014, dated 2021)
